From ChEMBL document CHEMBL1201862, “PubChem BioAssay data set” (2004)
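How tested: cells in 96-well plates exposed to compound for 48 hours at five concentrations. GI50 = concentration required for 50% inhibition of growth.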 Activity calls are given as the source filed them. Rule as the data show it: active = GI50 up to about 1.1 µM and inactive = higher.

Assays:
Experiment in all cases: inhibition of tumour cell growth, NCI panel, 48 h
SF-539 = tested on: SF-539
HOP-62 = tested on: HOP-62
UACC-257 = tested on: UACC-257
MDA-MB-231 = tested on: MDA-MB-231
SF-295 = tested on: SF-295
MCF7 = tested on: MCF7
OVCAR-8 = tested on: OVCAR-8
MDA-N = tested on: MDA-N
TK-10 = tested on: TK-10
HOP-92 = tested on: HOP-92
IGROV-1 = tested on: IGROV-1
COLO 205 = tested on: COLO 205
OVCAR-3 = tested on: OVCAR-3
HCT-116 = tested on: HCT-116
SR = tested on: SR
SK-MEL-28 = tested on: SK-MEL-28
SK-OV-3 = tested on: SK-OV-3
PC-3 = tested on: PC-3
UACC-62 = tested on: UACC-62
SNB-19 = tested on: SNB-19

Measured: GI50

Oc1c(C(Nc2ccccn2)c2ccccc2)ccc2cccnc12 (stereo not given)
inactive: SF-539 3.18 µM | HOP-62 4.94 µM | UACC-257 7.8 µM | MDA-MB-231 3.08 µM | SF-295 3.55 µM | MCF7 4.04 µM | OVCAR-8 4.01 µM | MDA-N 5.7 µM | TK-10 4.99 µM | HOP-92 1.94 µM | IGROV-1 3.33 µM | COLO 205 4.74 µM | OVCAR-3 2.51 µM | HCT-116 3.26 µM | SR 2.31 µM | SK-MEL-28 6.22 µM | SK-OV-3 9.4 µM | PC-3 3.39 µM | UACC-62 4.33 µM | SNB-19 5.51 µM

O=C1OC(c2ccccc2)=N/C1=C\c1ccc([N+](=O)[O-])cc1
inactive: SF-539 9.16 µM | HOP-62 30.1 µM | UACC-257 > 100 µM | MDA-MB-231 44.6 µM | SF-295 32.7 µM | MCF7 60 µM | OVCAR-8 11.9 µM | MDA-N > 100 µM | TK-10 28.8 µM | HOP-92 16.1 µM | IGROV-1 27.9 µM | COLO 205 > 100 µM | OVCAR-3 57.4 µM | HCT-116 98.6 µM | SR 2.35 µM | SK-MEL-28 > 100 µM | SK-OV-3 34.7 µM | PC-3 > 100 µM | UACC-62 26.5 µM | SNB-19 40.6 µM

CCCCCC(O)C1C(=O)OC(C)C(O)/C=C/C=C/C=C/C=C\C=C(\C)C(O)CC(O)CC(O)CC(O)CC(O)CC(O)CC1O (stereo not given)
inactive: SF-539 > 50 µM | HOP-62 > 50 µM | UACC-257 34.6 µM | MDA-MB-231 > 50 µM | SF-295 > 50 µM | MCF7 > 50 µM | OVCAR-8 > 50 µM | MDA-N > 50 µM | TK-10 > 50 µM | HOP-92 > 50 µM | IGROV-1 > 50 µM | COLO 205 > 50 µM | OVCAR-3 > 50 µM | HCT-116 > 50 µM | SR > 50 µM | SK-MEL-28 > 50 µM | SK-OV-3 > 50 µM | PC-3 > 50 µM | UACC-62 > 50 µM | SNB-19 > 50 µM

CCOC(NC(=O)CC)(C(F)(F)F)C(F)(F)F
inactive: SF-539 > 100 µM | HOP-62 > 100 µM | UACC-257 > 100 µM | MDA-MB-231 > 100 µM | SF-295 > 100 µM | MCF7 > 100 µM | OVCAR-8 > 100 µM | MDA-N > 100 µM | TK-10 > 100 µM | HOP-92 > 100 µM | IGROV-1 > 100 µM | COLO 205 > 100 µM | OVCAR-3 > 100 µM | HCT-116 > 100 µM | SR > 100 µM | SK-MEL-28 > 100 µM | SK-OV-3 > 100 µM | PC-3 > 100 µM | UACC-62 > 100 µM | SNB-19 > 100 µM

COc1ccc(C2OC[C@H]3O[C@@H](OCc4ccccc4)[C@H](O)[C@@H](O)[C@@H]3O2)cc1 (stereo not given in full)
inactive: SF-539 > 100 µM | HOP-62 > 100 µM | UACC-257 > 100 µM | MDA-MB-231 > 100 µM | SF-295 > 100 µM | MCF7 > 100 µM | OVCAR-8 > 100 µM | MDA-N > 100 µM | TK-10 > 100 µM | HOP-92 35.8 µM | IGROV-1 55 µM | COLO 205 > 100 µM | OVCAR-3 > 100 µM | HCT-116 > 100 µM | SR 67.9 µM | SK-MEL-28 > 100 µM | SK-OV-3 > 100 µM | PC-3 99.8 µM | UACC-62 > 100 µM | SNB-19 > 100 µM

CCOC(=O)c1c(N/C(S)=N/c2ccccc2)sc2c1CCOC2
inactive: SF-539 > 100 µM | HOP-62 92 µM | UACC-257 64 µM | MDA-MB-231 > 100 µM | SF-295 46.8 µM | MCF7 33 µM | OVCAR-8 > 100 µM | MDA-N 50.1 µM | TK-10 62.8 µM | HOP-92 24.9 µM | IGROV-1 27.5 µM | COLO 205 > 100 µM | OVCAR-3 87.9 µM | HCT-116 37.2 µM | SR 53.5 µM | SK-MEL-28 27.5 µM | SK-OV-3 85.9 µM | PC-3 61.2 µM | UACC-62 28.9 µM | SNB-19 > 100 µM

O=C(NC(OCc1ccccc1)(C(F)(F)F)C(F)(F)F)OCc1ccccc1
inactive: SF-539 17.3 µM | HOP-62 15.1 µM | UACC-257 14.2 µM | MDA-MB-231 17.7 µM | SF-295 17.6 µM | MCF7 16.4 µM | OVCAR-8 16.3 µM | MDA-N 15.2 µM | TK-10 7.8 µM | HOP-92 14.7 µM | IGROV-1 15.1 µM | COLO 205 17.8 µM | OVCAR-3 15.3 µM | HCT-116 16.4 µM | SR 12 µM | SK-MEL-28 17.7 µM | SK-OV-3 17.5 µM | PC-3 13.8 µM | UACC-62 13.9 µM | SNB-19 15.8 µM
